# Data: ChEMBL document CHEMBL5528003 (Eur J Med Chem, 2024)
# pIC50: −log10 of the molar value. Calls of active or inactive are those of the source. No cut-off for these calls is given here.
# Legend:
# [1] = Metabolic stability in human liver microsomes assessed as parent compound remaining incubated for 60 mins in presence of NADPH by LC-MS/MS analysis; type: ADME, Microsome; settings: read-out: Stability
# [2] = Metabolic stability in rat liver microsomes assessed as parent compound remaining incubated for 60 mins in presence of NADPH by LC-MS/MS analysis; type: ADME, Microsome; settings: read-out: Stability
# Estrogen receptor = target: T1, Estrogen receptor (Homo sapiens, UniProt P03372); assay: Induction of Estrogen receptor degradation in wildtype human MCF7 cells assessed as reduction in estrogen receptor level incubated for 24 hrs by Western blot analysis; type: cell-based
# T1 sequence (P03372 whole entry): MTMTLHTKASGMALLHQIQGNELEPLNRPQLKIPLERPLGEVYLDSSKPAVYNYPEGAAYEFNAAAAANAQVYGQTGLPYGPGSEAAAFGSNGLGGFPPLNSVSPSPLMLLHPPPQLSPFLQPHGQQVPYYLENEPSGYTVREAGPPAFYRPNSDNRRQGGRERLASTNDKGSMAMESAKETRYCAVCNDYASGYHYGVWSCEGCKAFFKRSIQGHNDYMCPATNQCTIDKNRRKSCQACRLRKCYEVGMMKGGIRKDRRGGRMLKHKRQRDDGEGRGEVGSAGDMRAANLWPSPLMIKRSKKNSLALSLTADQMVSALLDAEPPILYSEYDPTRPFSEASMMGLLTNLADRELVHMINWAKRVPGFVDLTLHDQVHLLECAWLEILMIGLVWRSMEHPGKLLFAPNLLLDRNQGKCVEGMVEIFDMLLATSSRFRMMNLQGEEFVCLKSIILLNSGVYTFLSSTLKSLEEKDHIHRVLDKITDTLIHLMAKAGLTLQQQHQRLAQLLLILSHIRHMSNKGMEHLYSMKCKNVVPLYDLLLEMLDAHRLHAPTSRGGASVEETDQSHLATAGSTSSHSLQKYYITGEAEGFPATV
# MCF7 [3] = assay: Antiproliferative activity against wildtype human MCF7 cells assessed as inhibition of cell proliferation incubated for 6 days in presence of beta-estradiol by CellTiter-Glo assay; type: functional, cell-based; settings: MCF7, 144 h
# Mus musculus [4] = assay: Invivo antagonist activity at Estrogen receptor in BALB/cNj Foxn1nu/Gpt mouse xenografted with human MCF-7/TAMR-1 cells assessed as single-layered cell phenotype of epithelial cells in uterus at 2.0 mg, IM administered for 28 days by H&E staining based analysis; type: functional; settings: time 28.0 day
# [5] = Apparent volume of distribution during terminal phase in Sprague-Dawley rat at 25 mg/kg, IM measured after 49 days by LC-MS/MS analysis; type: ADME, organism-based; settings: in vivo, 1176 h, time 49 day
# [6] = Cmax in Sprague-Dawley rat at 25 mg/kg, IM measured after 49 days by LC-MS/MS analysis; type: ADME, organism-based; settings: in vivo, time 49 day
# T47D [7] = assay: Antiproliferative activity against human T47D cells transfected with wildtype ESR1 assessed as inhibition of cell proliferation incubated for 5 days by CellTiter-Glo assay; settings: 120 h
# [8] = MRT in Sprague-Dawley rat at 25 mg/kg, IM measured after 49 days by LC-MS/MS analysis; type: ADME, organism-based; settings: in vivo, time 49 day
# T47D [9] = assay: Antiproliferative activity against human T47D cells transfected with ESR1 D538G mutant assessed as inhibition of cell proliferation incubated for 5 days by CellTiter-Glo assay; settings: 120 h
# [10] = target: T2, Estrogen receptor (Homo sapiens) (UniProt P03372); settings: T47D, time <= 48.0 hrs
# T2 sequence (whole entry): T1 sequence (P03372 whole entry)
# [11] = AUClast in Sprague-Dawley rat at 25 mg/kg, IM measured after 49 days by LC-MS/MS analysis; type: ADME, organism-based; settings: in vivo, 1176 h, time 49 day
# MCF7 [12] = settings: Homo sapiens, dose 4.0 nM, time 144.0 hrs
# [13] = target: T2, Estrogen receptor (Homo sapiens); settings: MCF7, time <= 48.0 hrs
# T47D [14] = assay: Antiproliferative activity against human T47D cells assessed as inhibition of proliferation incubated for 6 days by CellTiter-Glo assay; settings: 144 h
# Mus musculus [15] = assay: In vivo antagonist activity at Estrogen receptor in BALB/cNj Foxn1nu/Gpt mouse xenografted with human MCF-7/TAMR-1 cells assessed as reduction in PgR level in tumor at 2.0 mg, IM administered for 28 days by Western blot analysis; type: functional; settings: time 28.0 day
# [16] = Tmax in Sprague-Dawley rat at 25 mg/kg, IM measured after 49 days by LC-MS/MS analysis; type: ADME, organism-based; settings: in vivo, time 49 day
# Mus musculus [17] = assay: In vivo antagonist activity at Estrogen receptor in BALB/cNj Foxn1nu/Gpt mouse xenografted with human MCF-7/TAMR-1 cells assessed as reduction in ER level in tumor at 2.0 mg, IM administered for 28 days by Western blot analysis; type: functional; settings: time 28.0 day
# [18] = Solubility of compound in long acting formulation containing ethanol, benzyl alcohol, benzyl benzoate and castor oil incubated for 1 days by LC-MS/MS analysis; type: physicochemical; settings: 24 h; time 1 day
# [19] = Drug concentration in BALB/cNj Foxn1nu/Gpt mouse tumor xenografted with human MCF-7/TAMR-1 cells at 2.0 mg, IM administered for 28 days; type: ADME, tissue-based, Neoplasm; settings: time 28 day, read-out: Ct
# [20] = In vivo antagonist activity at Estrogen receptor in BALB/cNj Foxn1nu/Gpt mouse xenografted with human MCF-7/TAMR-1 cells assessed as fold reduction in uterus wet weight to body weight ratio at 2.0 mg, IM administered for 28 days; type: functional; settings: time 28 day
# [21] = Half-life in Sprague-Dawley rat at 25 mg/kg, IM measured after 49 days by LC-MS/MS analysis; type: ADME, organism-based; settings: in vivo, time 49 day
# T47D [22] = assay: Antiproliferative activity against human T47D cells transfected with ESR1 Y537S mutant assessed as inhibition of cell proliferation incubated for 5 days by CellTiter-Glo assay; settings: 120 h
# [23] = Drug concentration in BALB/cNj Foxn1nu/Gpt mouse plasma xenografted with human MCF-7/TAMR-1 cells at 2.0 mg, IM administered for 28 days; type: ADME, cell-free; settings: time 28 day
# [24] = MRT in Sprague-Dawley rat at 30 mg/kg, IM measured after 49 days by LC-MS/MS analysis; type: ADME, organism-based; settings: in vivo, time 49 day
# [25] = Drug concentration in BALB/cNj Foxn1nu/Gpt mouse tumor xenografted with human MCF-7/TAMR-1 cells at 7.2 mg, IM administered for 28 days; type: ADME, tissue-based, Neoplasm; settings: time 28 day, read-out: Ct
# [26] = Half-life in Sprague-Dawley rat at 30 mg/kg, IM measured after 49 days by LC-MS/MS analysis; type: ADME, organism-based; settings: in vivo, time 49 day
# [27] = Drug concentration in BALB/cNj Foxn1nu/Gpt mouse tumor xenografted with human MCF-7/TAMR-1 cells at 2.4 mg, IM administered for 28 days; type: ADME, tissue-based, Neoplasm; settings: time 28 day, read-out: Ct
# [28] = Drug concentration in BALB/cNj Foxn1nu/Gpt mouse plasma xenografted with human MCF-7/TAMR-1 cells at 7.2 mg, IM administered for 28 days; type: ADME, cell-free; settings: time 28 day
# MCF7 [29] = assay: Induction of apoptosis in human MCF7 cells assessed as viable cells at 20 nM incubated for 24 hrs by Annexin V-FITC/PI staining based flow cytometric analysis (reference value: 93.5 %); type: functional; settings: read-out: Activity
# [30] = Solubility of compound in long acting formulation containing ethanol, benzyl alcohol, benzyl benzoate and castor oil at 28.07 mg incubated for 1 day by LC-MS/MS analysis; type: physicochemical; settings: 24 h
# [31] = Drug concentration in BALB/cNj Foxn1nu/Gpt mouse tumor xenografted with human MCF-7/TAMR-1 cells at 0.8 mg, IM administered for 28 days; type: ADME, tissue-based, Neoplasm; settings: time 28 day, read-out: Ct
# MCF7 [32] = assay: Induction of apoptosis in human MCF7 cells assessed as viable cells at 4 nM incubated for 24 hrs by Annexin V-FITC/PI staining based flow cytometric analysis (reference value: 93.5 %); type: functional; settings: read-out: Activity
# [33] = AUClast in Sprague-Dawley rat at 30 mg/kg, IM measured after 49 days by LC-MS/MS analysis; type: ADME, organism-based; settings: in vivo, 1176 h, time 49 day
# [34] = Tmax in Sprague-Dawley rat at 30 mg/kg, IM measured after 49 days by LC-MS/MS analysis; type: ADME, organism-based; settings: in vivo, 1176 h, time 49 day
# [35] = Drug concentration in BALB/cNj Foxn1nu/Gpt mouse plasma xenografted with human MCF-7/TAMR-1 cells at 2.4 mg, IM administered for 28 days; type: ADME, cell-free; settings: time 28 day
# [36] = Cmax in Sprague-Dawley rat at 30 mg/kg, IM measured after 49 days by LC-MS/MS analysis; type: ADME, organism-based; settings: in vivo, time 49 day
# MCF7 [37] = assay: Induction of apoptosis in human MCF7 cells assessed as viable cells at 100 nM incubated for 24 hrs by Annexin V-FITC/PI staining based flow cytometric analysis (reference value: 93.5 %); type: functional; settings: read-out: Activity
# [38] = Solubility of compound in long acting formulation containing ethanol, benzyl alcohol, benzyl benzoate and castor oil assessed as clear yellow oil solution at 33.69 mg incubated for 1 day by LC-MS/MS analysis; type: physicochemical; settings: 24 h
# [39] = Drug concentration in BALB/cNj Foxn1nu/Gpt mouse plasma xenografted with human MCF-7/TAMR-1 cells at 0.8 mg, IM administered for 28 days; type: ADME, cell-free; settings: time 28 day
# [40] = Solubility of compound in long acting formulation containing ethanol, benzyl alcohol, benzyl benzoate and castor oil at 57.27 mg incubated for 1 day by LC-MS/MS analysis; type: physicochemical; settings: 24 h
# [41] = Apparent volume of distribution during terminal phase in Sprague-Dawley rat at 30 mg/kg, IM measured after 49 days by LC-MS/MS analysis; type: ADME, organism-based; settings: in vivo, 1176 h, time 49 day
structure (smiles),measurement,setting,value
C[C@@H]1Cc2c([nH]c3ccccc23)[C@@H](c2c(F)cc(NC3CN(CCC[S+]([O-])CCCC(F)(F)C(F)(F)F)C3)cc2F)N1CC(F)(F)F (some centres not stated),remaining at 1 h,[1],57.4%
same,remaining at 1 h,[2],93.7%
same,DC50,Estrogen receptor,1.7 nM
same,pIC50,MCF7 [3],8.57
C[C@]12CC[C@@H]3c4ccc(O)cc4C[C@@H](CCCCCCCCC[S+]([O-])CCCC(F)(F)C(F)(F)F)[C@H]3[C@@H]1CC[C@@H]2O (some centres not stated) [FULVESTRANT],Activity,Mus musculus [4],Active
same,Vz/F,[5],2158.67 L/kg
same,Cmax,[6],36.7 ng/mL
same,remaining at 1 h,[1],13%
same,remaining at 1 h,[2],9.6%
same,pIC50,T47D [7],8.66
same,MRT,[8],18.3 days
same,pIC50,T47D [9],7.23
same,T1/2,[10],0.608 days
same,AUClast,[11],325.96 ng·days/mL
same,inhibition,MCF7 [12],Active
same,pIC50,MCF7 [3],9.15
same,T1/2,[13],0.0542 days
same,pIC50,T47D [14],8.64
same,Activity,Mus musculus [15],Active
same,Tmax,[16],0.29 days
same,Activity,Mus musculus [17],Active
same,solubility,[18],53.17 mg/mL
same,concentration at 672 h,[19],83.4 ng/mL
same,fold change (FC),[20],~2
same,half-life,[21],28.6 days
same,pIC50,T47D [22],8.23
same,concentration at 672 h,[23],30.8 ng/mL
C[C@@H]1Cc2c([nH]c3ccccc23)[C@@H](c2c(F)cc(NC3CN(CCC[S+]([O-])CCCC(F)(F)C(F)(F)F)C3)cc2F)N1CC(F)(F)CO (some centres not stated),remaining at 1 h,[1],60.1%
same,remaining at 1 h,[2],79.3%
same,DC50,Estrogen receptor,1.2 nM
same,pIC50,MCF7 [3],9.05
C[C@@H]1Cc2c([nH]c3ccccc23)[C@@H](c2c(F)cc(NC3CN(CCCS(=O)(=O)CCCC(F)(F)C(F)(F)F)C3)cc2F)N1CC(F)(F)CO,MRT,[24],15.6 days
same,concentration at 672 h,[25],252 ng/mL
same,remaining at 1 h,[1],61%
same,half-life,[26],14.7 days
same,concentration at 672 h,[27],154 ng/mL
same,remaining at 1 h,[2],85.7%
same,concentration at 672 h,[28],87.7 ng/mL
same,viability at 0.02 µM,MCF7 [29],70.5%
same,solubility,[30],Insoluble
same,concentration at 672 h,[31],35.9 ng/mL
same,viability at 0.004 µM,MCF7 [32],82.7%
same,AUClast,[33],840.09 ng·days/mL
same,solubility,[18],95.1 mg/mL
same,Tmax,[34],14 days
same,concentration at 672 h,[35],46.6 ng/mL
same,Cmax,[36],41.5 ng/mL
same,viability at 0.1 µM,MCF7 [37],66.2%
same,solubility,[38],Soluble
same,concentration at 672 h,[39],14.9 ng/mL
same,solubility,[40],Insoluble
same,Vz/F,[41],1658.37 L/kg
